Test results published in ChEMBL document CHEMBL6103652, “Niacin Ester Derivative of Brefeldin A as a Potential Dual-Target Arf1/BMX Inhibitor for Bladder Cancer” (J Nat Prod, 2025).
pIC50: −log10 of the molar value. Active and inactive are the calls of the source. The calls are words filed in the database; no cut-off is given here.

Key:
[1] = Antitumor activity against mouse MB49 cells implanted in male C57BL/6 mouse assessed as reduction in CD133 expression level at 1 mg/kg,iv bid measured after 14 days by immunohistochemical analysis relative to control; type: functional; parameters: scale not given: the % may be the effect or the level left; conditions: time 14 day
[2] = Downregulation of BMX expression level in human T24 cells at 0.5 uM incubated for 24 hrs by Western blotting analysis relative to control; type: functional, T-24
T-24 [3] = experiment: Induction in apoptosis in human T24 cells assessed as viable cells at 0.25 uM incubated for 48 hrs by Annexin V-FITC staining based flow cytometry analysis (reference value: 90.44 %); type: functional; conditions: read-out: Activity
[4] = Downregulation of p-STAT3 expression level in human T24 cells at 0.5 uM incubated for 24 hrs by Western blotting analysis relative to control; type: functional, T-24
[5] = Toxicity in ICR mouse assessed as body weight change at 100 mg/kg, ip administered once for 14 days; type: organism-based; conditions: in vivo, 336 h, time 14 day
[6] = Cmax in Sprague-Dawley rat at 5 mg/kg, iv measured upto 24 hrs; type: ADME, organism-based; conditions: in vivo
T-24 [7] = experiment: Induction of cell cycle arrest in human T24 cells assessed as accumulation of cells at G1 phase at 0.25 uM incubated for 24 hrs by RNase A/Propidium Iodide staining based flow cytometry analysis (reference value: 43.80 %); type: functional
T-24 [8] = experiment: Inhibition of cell migration in human T24 cells at 0.50 uM incubated for 12 hrs by scratch assay (reference value: 66 %); type: functional
T-24 [9] = experiment: Induction in apoptosis in human T24 cells assessed as viable cells at 0.13 uM incubated for 48 hrs by Annexin V-FITC staining based flow cytometry analysis (reference value: 90.44 %); type: functional; conditions: read-out: Activity
T24 = experiment: Inhibition of AKT phosphorylation in human T24 cells incubated for 24 hrs by Western blotting analysis; type: cell-based; conditions: dose 0.13-0.5 µM
[10] = MRT(0 to t) in Sprague-Dawley rat at 5 mg/kg, iv measured upto 24 hrs; type: ADME, organism-based; conditions: in vivo
T-24 [11] = experiment: Inhibition of cell migration in human T24 cells at 0.25 uM incubated for 24 hrs by scratch assay (reference value: 88 %); type: functional; conditions: T-24, 24 h
T-24 [12] = experiment: Antiproliferative activity against human T24 cells assessed as inhibition of cell proliferation measured after 72 hrs by MTT assay; type: functional, cell-based; conditions: T-24, 72 h
Huh-7 = experiment: Antiproliferative activity against human Huh-7 cells assessed as inhibition of cell proliferation measured after 72 hrs by MTT assay; type: functional, cell-based; conditions: Huh-7, 72 h
[13] = Downregulation of AKT expression level in human T24 cells at 0.13 to 0.50 uM incubated for 24 hrs by Western blotting analysis relative to control; type: functional, T-24; conditions: dose 0.13-0.5 µM, at 0.13 to 0.5 µM
[14] = AUC(0 to t) in Sprague-Dawley rat at 5 mg/kg, iv measured upto 24 hrs; type: ADME, organism-based; conditions: in vivo
T-24 [15] = experiment: Induction of cell cycle arrest in human T24 cells assessed as accumulation of cells at G2/M phase at 0.13 uM incubated for 24 hrs by RNase A/Propidium Iodide staining based flow cytometry analysis (reference value: 22.67 %); type: functional
A549 = experiment: Antiproliferative activity against human A549 cells assessed as inhibition of cell proliferation measured after 72 hrs by MTT assay; type: functional, cell-based; conditions: A549, 72 h
[16] = Downregulation of p-BMX expression level in human T24 cells at 0.5 uM incubated for 24 hrs by Western blotting analysis relative to control; type: functional, T-24
T-24 [17] = experiment: Induction in apoptosis in human T24 cells assessed as necrotic cells at 0.5 uM incubated for 48 hrs by Annexin V-FITC staining based flow cytometry analysis (reference value: 1.14 %); type: functional
[18] = Toxicity in male C57BL/6 mouse allografted with mouse MB49 cells assessed as tumor cell apoptosis at 1 mg/kg,iv bid measured after 14 days by H and E staining based analysis; type: organism-based; conditions: in vivo, 336 h, time 14 day
MB49 [19] = experiment: Antitumor activity against mouse MB49 cells implanted in male C57BL/6 mouse model assessed as reduction in tumor volume at 1 mg/kg,iv bid measured after 14 days; type: functional, organism-based; conditions: time 14.0 day
[20] = molecular target: T1, Cytoplasmic tyrosine-protein kinase BMX (Homo sapiens) (UniProt P51813); experiment: Induction of thermal stabilization of BMX in human T24 cells at 48 to 68 degreeC at 0.13 to 0.50 uM incubated for 6 hrs by CETSA analysis; type: cell-based; conditions: dose 0.13-0.5 µM
T1 sequence (whole entry): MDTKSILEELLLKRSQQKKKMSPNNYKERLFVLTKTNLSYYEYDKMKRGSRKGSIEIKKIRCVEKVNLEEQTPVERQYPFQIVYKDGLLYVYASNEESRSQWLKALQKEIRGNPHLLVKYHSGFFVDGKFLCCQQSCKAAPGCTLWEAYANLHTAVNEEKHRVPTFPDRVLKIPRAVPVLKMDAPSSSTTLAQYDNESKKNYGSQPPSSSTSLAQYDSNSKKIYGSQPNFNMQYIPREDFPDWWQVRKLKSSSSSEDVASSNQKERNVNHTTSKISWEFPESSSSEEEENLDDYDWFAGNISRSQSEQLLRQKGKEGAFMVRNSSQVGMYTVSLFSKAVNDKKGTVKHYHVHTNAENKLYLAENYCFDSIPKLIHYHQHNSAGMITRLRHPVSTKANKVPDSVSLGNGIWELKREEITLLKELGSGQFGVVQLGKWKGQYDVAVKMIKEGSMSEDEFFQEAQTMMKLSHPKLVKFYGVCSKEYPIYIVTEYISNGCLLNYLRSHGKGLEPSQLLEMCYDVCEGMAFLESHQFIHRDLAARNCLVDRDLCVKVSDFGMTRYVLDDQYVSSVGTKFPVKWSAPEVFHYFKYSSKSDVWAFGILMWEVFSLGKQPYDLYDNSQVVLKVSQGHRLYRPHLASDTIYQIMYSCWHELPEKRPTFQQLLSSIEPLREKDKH

[21] = Antitumor activity against mouse MB49 cells implanted in male C57BL/6 mouse assessed as reduction in Ki67 expression level at 1 mg/kg,iv bid measured after 14 days by immunohistochemical analysis relative to control; type: functional; parameters: scale not given: the % may be the effect or the level left; conditions: time 14 day
HCT-116 = experiment: Antiproliferative activity against human HCT-116 cells assessed as inhibition of cell proliferation measured after 72 hrs by MTT assay; type: functional, cell-based; conditions: HCT-116, 72 h
[22] = Half life in Sprague-Dawley rat at 5 mg/kg, iv measured upto 24 hrs; type: ADME, organism-based; conditions: in vivo
MB49 [23] = experiment: Antitumor immunity against mouse MB49 cells implanted in male C57BL/6 mouse assessed as increase in infiltration of CD4+ cells at 1 mg/kg,iv bid measured after 14 days immunofluorescence based analysis; type: functional, organism-based; conditions: time 14.0 day
MB49 [24] = experiment: Antitumor immunity against mouse MB49 cells implanted in male C57BL/6 mouse assessed as increase in infiltration of CD3+ cells at 1 mg/kg,iv bid measured after 14 days immunofluorescence based analysis; type: functional, organism-based; conditions: time 14.0 day
T-24 [25] = experiment: Induction in apoptosis in human T24 cells assessed as necrotic cells at 0.25 uM incubated for 48 hrs by Annexin V-FITC staining based flow cytometry analysis (reference value: 1.14 %); type: functional
T-24 [26] = experiment: Induction in apoptosis in human T24 cells assessed as late apoptotic cells at 0.5 uM incubated for 48 hrs by Annexin V-FITC staining based flow cytometry analysis (reference value: 4.78 %); type: functional

- Cmax [6]: 1460 ng/mL
- MRT last at 24 h [10]: 8.4 min
- pIC50 (Huh-7): 6.00
- AUC(0-t) at 24 h [14]: 1350 ng·h/mL
- pIC50 (A549): 6.64
- Activity [20]: Active
- pIC50 (HCT-116): 6.24
- half-life [22]: 21.6 min
Compound: C[C@H]1CCC/C=C/[C@@H]2C[C@H](O)C[C@H]2[C@H](OC(=O)c2cccnc2)/C=C/C(=O)O1
- Activity [1]: 61%
- Activity [2]: 35%
- viability at 0.25 µM (T-24 [3]): 66.9%
- Activity [4]: 55%
- Activity [5]: Non-toxic
- Activity (T-24 [7]): 48.88%
- wound closure at 0.5 µM (T-24 [8]): 13%
- viability at 0.13 µM (T-24 [9]): 89.2%
- inhibition (T24): Dose-dependent-effect
- wound closure at 0.25 µM (T-24 [11]): 26%
- pIC50 (T-24 [12]): 6.66
- Activity [13]: 62%
- Activity (T-24 [15]): 22.53%
- Activity [16]: 35%
- Activity (T-24 [17]): 3.49%
- Activity [18]: Non-toxic
- Activity (MB49 [19]): Active
- Activity [21]: 56%
- Activity (MB49 [23]): Active
- Activity (MB49 [24]): Active
- Activity (T-24 [25]): 3.33%
- Activity (T-24 [26]): 24.81%
